Holding throughout (test): 3' UTR reporter interaction score (median-centred robust z-score of log2 firefly/Renilla activity); higher = less repression of the 3' UTR reporter
Settings in all cases: HEK293T; 48 h

One data set concerns BRCA2. Summed up: (§1)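 HEK293T cells (10,000/well, 96-well plates) were co-transfected using DharmaFECT Duo with 100 ng firefly luc2P reporter carrying the gene's 3' UTR, 20 ng Renilla pRL-TK control and 2.5 pmol miRNA mimic. Dual-luciferase activities were read 48 h post-transfection. The interaction score is the log-transformed firefly/Renilla ratio as a per-plate robust z-score (median, median absolute deviation), median-centred per miRNA and averaged over at least two independent screens; more negative indicates interaction.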

The subject of a further data set is EZH2. Summed up:
as §1

Another data set relates to FBXW7. The gist of the method: as §1
A further data set deals with HRAS. The gist of the method: as §1
The test system of the next data set is MYB. Summed up: as §1
Another data set has as its system MYCN. Summed up: as §1
The test system of another data set is MYC. The gist of the method:
as §1

For a further data set, the system named is MYT1L. Summed up:
as §1

The test system of another data set is NOTCH1. The gist of the method:
as §1

For the next data set, the system named is PHF6. Summed up:
as §1

The subject of another data set is PHOX2B. The gist of the method:
as §1

The next data set concerns RB1. The gist of the method: as §1
For a further data set, the system named is TP53. Summed up: as §1
In another data set the test system is ZEB2. Summed up:
as §1

The text below walks through data of the supplement of paper PMC5844555.

Regarding AGGGCCCCCCCUCAAUCCUGU, the “3' UTR reporter interaction score” value was 0.425 in the data set on BRCA2; 0.205 in the data set with EZH2; 0.757 in the data set with FBXW7; -0.753 in the data set with HRAS; 0.144 with MYB; -0.0892 in the data set with MYCN. For the same sequence, the “3' UTR reporter interaction score” value in the data set on MYC was -0.761; in the data set on MYT1L, 0.617; with NOTCH1 it was -0.584; in the data set with PHF6, 0.378; in the data set on PHOX2B it was 0.177; in the data set on RB1, 1.06. The “3' UTR reporter interaction score” value is -0.172 with TP53 and 1.65 with ZEB2.
Regarding AGGGGGAAAGUUCUAUAGUCCU, the “3' UTR reporter interaction score” value is -1.55 in the data set with BRCA2; -1.49 in the data set on EZH2; 0.691 in the data set on FBXW7; 0.225 in the data set with HRAS; 1.55 in the data set with MYB; 0.426 with MYCN. Besides, the “3' UTR reporter interaction score” value with MYC was -1.56; with MYT1L it was -0.154; in the data set on NOTCH1, -1.57; in the data set with PHF6 it was 1.82; with PHOX2B it was 1.33; in the data set on RB1, 0.755. Besides, the “3' UTR reporter interaction score” value in the data set with TP53 is -0.601; with ZEB2, 2.84.
On to AGGGGUGGUGUUGGGACAGCUCCGU, for which the “3' UTR reporter interaction score” value was -0.768 in the data set on BRCA2; 0.203 in the data set on EZH2; 0.925 in the data set on FBXW7; -1.12 in the data set on HRAS; -0.179 with MYB; 0.408 in the data set with MYCN. Also, the “3' UTR reporter interaction score” value with MYC was -0.499; in the data set on MYT1L, -0.319; in the data set with NOTCH1 it was -4.27; with PHF6, -0.137; with PHOX2B, -0.841; with RB1, 0.429. The “3' UTR reporter interaction score” value with TP53 turned out to be 0.0145; in the data set with ZEB2, 0.212.
Take AGGGUAAGCUGAACCUCUGAU: the “3' UTR reporter interaction score” value in the data set on BRCA2 was 0.0158; in the data set with EZH2 it was -0.149; with FBXW7, 2.4; in the data set with HRAS, -0.74; with MYB, 0.366; with MYCN it was 1.35. Further, the “3' UTR reporter interaction score” value is -0.643 in the data set on MYC; 0.432 in the data set with MYT1L; -0.542 in the data set on NOTCH1; -0.384 in the data set on PHF6; 1.64 in the data set on PHOX2B; -1.03 in the data set on RB1. Moreover, the entries for the “3' UTR reporter interaction score” value with TP53 and with ZEB2 were 0.182 and -0.308, respectively.
As for AGGGUGUUUCUCUCAUCUCU, the “3' UTR reporter interaction score” value was -0.403 in the data set on BRCA2; -0.619 in the data set on EZH2; -0.794 in the data set on FBXW7; 0.396 in the data set with HRAS; 1.44 in the data set with MYB; 1.22 in the data set on MYCN. For the same sequence, the “3' UTR reporter interaction score” value was 0.84 in the data set on MYC; -2.32 in the data set on MYT1L; -1.24 in the data set on NOTCH1; 1.32 with PHF6; 2.27 in the data set on PHOX2B; -0.774 in the data set on RB1. Also, the “3' UTR reporter interaction score” value in the data set with TP53 was 0.571; in the data set on ZEB2, -0.283.
